The results in this text go back to patent US8383601B2, “Tissue specific gene therapy treatment” (Thomas Jefferson University, priority 2006, dated 2013).

Assay [1] relates to rat MI model (chronic HF). The assay is described as follows: Catheter-based in vivo hemodynamic measurements in post-MI HF rats. The note with it: mean ± SEM. The procedure: (§1) Rat MI model and cardiac gene delivery—All animal procedures and experiments were performed in accordance with the guidelines of the IACUC of Thomas Jefferson University. MI was induced as described previously using a model of cryoinfarction that produces a highly reproducible loss of myocardium^13. Briefly, anesthetized adult male (250-300 g) rats were intubated and mechanically ventilated and anaesthesia was maintained using a 2% isoflurane (v/v) oxygen mixture. The heart was exposed through a median sternotomy and the pericardium was opened. A 6-0 suture was placed at the apex of the LV. An 8 mm diameter cylindrical stamp was cooled in liquid nitrogen and then pressed on the LV free wall. Cryothermia was applied by use of three freeze cycles of 1 min each that was interrupted by one minute thawing intervals^13,15.
Myocardial gene transfer to 10 week post-MI rats was achieved as previously described^13,15 with some modifications. Briefly, under general anesthesia (2% isoflurane, v/v) a midline cervical incision was made and the animal was cooled to 29° C. using ice packs. A P-50 catheter (Becton Dickinson, Sparks, Md.) was advanced into the aortic root via the right carotid artery and the ascending aorta was looped using 2-0 silk. 1.2 mg adenosine was injected into the right ventricle using a 30½ G needle. Next, the ascending aorta was clamped and 2.5×10^11 particles of the AAV construct and 8 μg of substance P (Sigma) were rapidly injected into the aortic root allowing for coronary perfusion. After 2 min the aortic clamp was released, a bolus of dobutamine (30 μg; intra-arterial) was administered and the animal was re-warmed using a heating pad. The incision was closed and animals were transferred back to their cages receiving appropriate analgesia. […]
Catheter-based in vivo hemodynamic measurements—Cardiac function was measured 8 weeks following gene therapy (18 weeks after MI) in anesthetized rats (2% isoflurane; v/v) using 2 F pressure catheter (SPR-320; Millar instruments, Houston, Tex.). The pressure transducer was placed into the LV cavity through the right carotid artery and the right external jugular vein was cannulated with a P-10 catheter (Becton Dickinson, Sparks, Md.) that was used for isoproterenol administration (333 ng/kg BW) as previously described^13,15.

Assay [2] deals with rat MI model (chronic HF). The assay is described as follows: Echocardiography of global cardiac function in post-MI HF rats. The format is in vivo. The procedure: as §1
Myocardial gene transfer to 10 week post-MI rats was achieved as previously described^13,15 with some modifications. […]
Echocardiography—To measure global cardiac function, echocardiography was performed 10 and 18 weeks post-MI by use of the VisualSONICS VeVo 770 imaging system with a 710 scanhead in anesthetized animals (2% isoflurane, v/v). The internal diameter of the LV was measured in the short-axis view from M-mode recordings in end diastole and end systole. […]

In assay [3] the test system is rat MI model (chronic HF). The assay is described as follows: Heart weight to body weight ratio in post-MI HF rats. The note with it: 18 weeks post-MI; mean ± SEM. It counts as in vivo.
Experimental: Myocardial gene transfer to 10 week post-MI rats was achieved as previously described^13,15 with some modifications. Briefly, under general anesthesia (2% isoflurane, v/v) a midline cervical incision was made and the animal was cooled to 29° C. using ice packs. A P-50 catheter (Becton Dickinson, Sparks, Md.) was advanced into the aortic root via the right carotid artery and the ascending aorta was looped using 2-0 silk. 1.2 mg adenosine was injected into the right ventricle using a 30½ G needle. Next, the ascending aorta was clamped and 2.5×10^11 particles of the AAV construct and 8 μg of substance P (Sigma) were rapidly injected into the aortic root allowing for coronary perfusion. […]
The test system of assay [4] is adult rat ventricular cardiomyocytes. The assay is described as follows: Diastolic cell length of isolated cardiomyocytes. The format is cell-based. The note with it: 2 hrs after cardiomyocyte isolation, 3 animals per group, 18 weeks post-MI; mean ± SEM.
Assay [5] has the same test system. The assay is described as follows: Ca2+-transient analyses and contractile parameters of isolated adult rat cardiomyocytes. To be noted: 8 weeks after treatment; 1 Hz, 2.5 mM [Ca2+]e; for AAV6/S100A1 infected (green) cells only. The format is cell-based.
The subject of assay [6] is LV mRNA (S100A1, SERCA2a, PLB, ANF, TGFβ1, Collagen I). The assay is described as follows: Real-time RT-PCR of cardiac expression of key genes in LV. The format is in vivo, rat. To be noted: 18 weeks post-MI. On the procedure:
RNA isolation and real-time RT-PCR—Total RNA was isolated from LV as well as from isolated cardiomyocytes using either Ultraspec® (Biotec) or Trizol® (Life Technologies). cDNA was synthesized by reverse transcription of the RNA with Superscript II® (Life Technologies) as recommended. Real-time RT-PCR was performed in duplicates with a 1:100 dilution of the cDNA on a MyIQ real time PCR detection system (BioRad) with the SYBR® Green PCR master mix (Applied Biosystems) as described previously^13,15. The oligonucleotide primers to examine expression of genes were as follows: ANF, forward primer 5′-[…]-3′ (SEQ. ID. No. 13), reverse primer 5′-[…]-3′ (SEQ. ID. No. 14); SERCA2a, forward primer 5′-[…]-3′ (SEQ. ID. No. 15), reverse primer 5′-[…]-3′ (SEQ. ID. No. 16); PLB, forward primer 5′-[…]-3′ (SEQ. ID. No. 17), reverse primer 5′-[…]-3′(SEQ. ID. No. 18); S100A1, forward primer 5′-[…]-3′ (SEQ. ID. No. 19), reverse primer 5′-[…]-3′ (SEQ. ID. No. 20); TGF-131, forward primer 5′-[…]-3′ (SEQ. ID. No. 21), reverse primer 5′-[…]-3′(SEQ. ID. No. 22); Collagen type I, forward primer 5′-[…]-3′ (SEQ. ID. No. 23), reverse primer 5′-AGGTGATGTTCTGGG-3′(SEQ. ID. No. 24); GRK2, forward primer 5′-[…]-3′ (SEQ. ID. No. 25), reverse primer 5′-[…]-3′ (SEQ. ID. No. 26). For normalization, 18S rRNA was used, forward primer 5′-[…]-3′ (SEQ. ID. No. 27), reverse primer 5′-GGACATCTAAGGGCATCAC-3′ (SEQ. ID. No. 28). PCR conditions were 95° C., 3 min, and 40 cycles of 95° C., 10 sec; 60.5° C., 45 sec. Specificity of PCR products were confirmed by gel electrophoresis.
A general note: Quantitative PCR measures a nucleic acid by following its amplification.

Assay [7] concerns S100A1 mRNA expression in RCEC. The assay is described as follows: Regulation of S100A1 expression in endothelial cells. It counts as cell-based, rat. The note with it: 10^−7 M, 60 hours, versus PBS. The procedure: Regulation of S100A1 expression in HCAEC—After growing HCAEC or RCEC to 90% confluency full medium was replaced by basal EBM-2 medium with 0.5% serum and cells were stimulated with endothelin-1 (ET-1), angiotensin II (AngII) (both 10^−7 M) or PBS for 60 h. Cells were harvested for either mRNA or protein isolation and S100A1 expression was standardized against 18S rRNA or GAPDH.
RNA Isolation and Real-time RT-PCR—Total RNA was isolated from either HCAEC or […] using Trizol® (Life Technologies). cDNA was synthesized by reverse transcription of the RNA with Superscript II® (Life Technologies) as recommended. Real-time PCR was performed in duplicates with a 1:100 dilution of the cDNA on a MyIQ real time PCR detection system (BioRad) with the SYBR® Green PCR master mix (Applied Biosystems). The oligonucleotide primers to examine expression of genes were as follows: S100A1, forward primer 5′-[…]-3′ (SEQ. ID. No. 19), reverse primer 5′-[…]-3′ (SEQ. ID. No. 20). For normalization, 18S rRNA was used, forward primer 5′-[…]-3′ (SEQ. ID. No. 27), reverse primer 5′-GGACATCTAAGGGCATCAC-3′ (SEQ. ID. No. 28). PCR conditions were 95° C., 3 min, and 40 cycles of 95° C., 10 sec; 63.5° C., 45 sec. Specificity of PCR products were confirmed by gel electrophoresis.

The subject of a further assay is mouse thoracic aorta. The assay is described as follows: In vitro physiology: relaxation/contraction response of thoracic aorta rings. The text has this: In Vitro physiology —The relaxation/contraction response of thoracic aortas of WT or SKO mice was examined using a commercially available mounting apparatus attached to a force transducer (ADInstruments). […] Data were normalized to the PE-induced EC50 contraction which were similar between all aorta tested.

Assay [8] concerns endothelial surface of thoracic aorta. The assay is described as follows: NO release from mouse aorta. The note with it: ACh 10^−5 M. On the procedure: NO release from mouse aorta—NO release from the endothelial surface of aorta was measured in vitro using an Apollo 4000 “Free Radical Analyzer” (WPI, Sarasota, Fla.) as previously described with some modifications.^52 Briefly, thoracic aorta of WT (n=4) and SKO (n=4) mice were carefully isolated and pinned down in KH solution after connective tissue was thoroughly removed. NO was measured under baseline conditions as well as after ACh stimulation (10^−5 M). Two measurements were recorded per animal and condition and NO values were normalized to the weight of the vascular tissue.

In another assay the test system is HCAEC. The assay is described as follows: S100A1 overexpression and NO production in HCAEC. It counts as cell-based, human. To be noted: HCAEC pre-incubated with 10^−4 M 20 minutes prior to ACh.
Setting [9] is: Isoproterenol (333 ng/kg BW), 8 weeks after gene therapy in HF.
[10] abbreviates: basal, 8 weeks after gene therapy in HF.

Usually EC50 stands for the concentration at which the effect is half-maximal.

Where no end group is shown, it is not given here.

Experimental for HCAEC: S100A1 overexpression and NO production in HCAEC—S100A1 overexpression in HCAEC was achieved by electrical transfection of the plasmid pAdTrack-S100A1 (10 μg), which encodes for GFP and S100A1 both driven by individual cytomegalovirus (CMV) promoters. PBS and the plasmid pAdTrack (10 μg) were used as controls. 500,000 HCAEC were used for each transfection using Nucleofactor® (AMAXA biosystems) according to the manufacturers instructions and plated on 6 well dishes. 18 hours after transfection cells were stimulated using 10^−5M ACh or PBS for 1 hour. […] NO in the supernatant was measured indirectly using the Nitrate/Nitrite fluorometric assay kit (Cayman, Chemical) according to company recommendations. Transfection was controlled by GFP expression as described previously and cells were harvested for mRNA isolation. Experiments were run in triplicate and 3 individual experiments were performed.

On to `COCCc1ccc(OCC(O)CNC(C)C)cc1` (centres unmarked) [metoprolol], for which, in assay [1] (setting [9]), the HR was 308 ± 6^& min^−1, the “LV +dP/dt” value amounted to 9403 ± 491 mmHg/s, the “LV −dP/dt” value amounted to 5571 ± 333 mmHg/s and the LVEDP turned out to be 2.8 ± 0.4 mmHg. Further, the LVESP in assay [1] (setting [9]) came out at 105 ± 3.7 mmHg. For the same compound, the HR in [1] (basal, 8 weeks after gene therapy in HF (18 weeks post-MI)) is recorded as 264 ± 8^& min^−1. For the same compound, in [1] (setting [10]), the “LV +dP/dt” value turned out to be 4948 ± 225 mmHg/s, the “LV −dP/dt” value was 4418 ± 223 mmHg/s, the LVEDP was found to be 4.6 ± 0.5 mmHg and the LVESP is 109 ± 3.1 mmHg. In addition, the “LV chamber dilatation (LV diastolic dimension)” value in assay [2] (18 week post-MI compared to pre-treatment (10 week post-MI) values) is reported as “significantly attenuated further LV chamber dilatation”. Besides, the “change in cardiac function (EF) over the 2 month treatment period” value in assay [2] (HF rats, metoprolol only (with GFP)) is listed as “no improvement”. Moreover, the HW/BW ratio in assay [3] is on record as 2.77 ± 0.05 g/kg. The “Cell length (diastolic)” value in assay [4] turned out to be 118.9 ± 2.3 μm. In addition, the “contractile properties and [Ca2+]i transients of isolated failing myocytes” value in assay [5] is “did not affect contractile properties”. For the same compound, in [6], the “Collagen I mRNA levels” value is listed as “significantly reduced”, the “TGFβ1 mRNA levels” value is given as “significantly reduced” and the “ventricular ANF mRNA expression” value is “significantly reduced”. Further, in assay [6] (standardized to 18S rRNA), the “PLB mRNA levels” value was “attenuated the down-regulation”, the “SERCA2a mRNA levels” value is “attenuated the down-regulation” and the “cardiac S100A1 mRNA” value is listed as “attenuated the down-regulation”.
Take “endothelin-1 (CSCSSLMDKECVYFCHLDIIW; ends and bridges not checked; cysteine pairing not given here; UniProt P05305 53-73, looked up) [ET-1]”: in assay [7], the “S100A1 mRNA levels” value is “significantly reduced”.
For the compound `CC(=O)OCC[N+](C)(C)C` [ACh, acetylcholine], the “maximal response to ACh” value with mouse thoracic aorta (SKO aortas (n=6)) was 55±6.49 % of PE-precontraction; with mouse thoracic aorta (WT control aortas (n=6)), 14±2.41 % of PE-precontraction. Moreover, the “ACh stimulated aortic endothelial NO release” value in assay [8] (SKO mice (n=4), second value) was found to be 134.5±25.3 nM NO/mg tissue; in assay [8] (WT mice (n=4)) it was 368.2±68.1 nM NO/mg tissue.
For the compound `NCCOB(c1ccccc1)c1ccccc1` [2-APB, 2-aminoethoxydiphenylborate], in the assay on HCAEC, the “ACh-stimulated NO generation after IP3R blockage” value was “abolished NO generation”.
Regarding “angiotensin II (DRVYIHPF; Angiotensin-2; UniProt P01019 25-32, looked up) [Ang II]”, the “S100A1 mRNA levels” value in [7] was “significantly reduced”.
Turning to `CNC[C@H](O)c1cccc(O)c1` [PE, phenylephrine], the EC50 with mouse thoracic aorta (Mus musculus, read-out: EC50 of the PE response (contraction)) turned out to be 300 nM.
